How the values were obtained:
[1] = molecular target: Neuronal acetylcholine receptor; alpha3/beta4 (Homo sapiens, UniProt P30926+P32297); assay: Antagonist activity at human nAChR alpha3/beta4 receptor expressed in HEK ts201 cells assessed as calcium accumulation by fluorescence analysis; format: functional, cell-based
Homo sapiens = species: Homo sapiens; assay: Selectivity ratio of pIC50 for human nAChR alpha3/beta4 receptor to pIC50 for human nAChR alpha4/beta2 receptor
[2] = molecular target: Neuronal acetylcholine receptor; alpha4/beta2 (Homo sapiens, UniProt P17787+P43681); assay: Antagonist activity at human nAChR alpha4/beta2 receptor expressed in HEK ts201 cells assessed as calcium accumulation by fluorescence analysis; format: functional, cell-based
Chain of Neuronal acetylcholine receptor; alpha4/beta2 (P17787 whole entry): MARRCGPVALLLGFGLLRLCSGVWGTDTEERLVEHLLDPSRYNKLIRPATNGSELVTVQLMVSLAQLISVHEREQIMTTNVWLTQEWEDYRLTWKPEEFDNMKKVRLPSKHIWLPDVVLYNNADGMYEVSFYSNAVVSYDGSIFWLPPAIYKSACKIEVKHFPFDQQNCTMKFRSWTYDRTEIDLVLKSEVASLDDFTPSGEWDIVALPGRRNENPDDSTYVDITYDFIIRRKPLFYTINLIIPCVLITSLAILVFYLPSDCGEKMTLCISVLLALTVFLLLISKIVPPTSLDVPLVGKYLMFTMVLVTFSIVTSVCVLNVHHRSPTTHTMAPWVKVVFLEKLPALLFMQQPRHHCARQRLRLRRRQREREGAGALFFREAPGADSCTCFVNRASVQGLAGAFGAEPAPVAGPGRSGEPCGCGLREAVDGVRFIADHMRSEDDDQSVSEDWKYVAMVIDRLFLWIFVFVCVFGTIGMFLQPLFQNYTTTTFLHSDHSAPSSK
Chain of Neuronal acetylcholine receptor; alpha4/beta2 (P43681 whole entry): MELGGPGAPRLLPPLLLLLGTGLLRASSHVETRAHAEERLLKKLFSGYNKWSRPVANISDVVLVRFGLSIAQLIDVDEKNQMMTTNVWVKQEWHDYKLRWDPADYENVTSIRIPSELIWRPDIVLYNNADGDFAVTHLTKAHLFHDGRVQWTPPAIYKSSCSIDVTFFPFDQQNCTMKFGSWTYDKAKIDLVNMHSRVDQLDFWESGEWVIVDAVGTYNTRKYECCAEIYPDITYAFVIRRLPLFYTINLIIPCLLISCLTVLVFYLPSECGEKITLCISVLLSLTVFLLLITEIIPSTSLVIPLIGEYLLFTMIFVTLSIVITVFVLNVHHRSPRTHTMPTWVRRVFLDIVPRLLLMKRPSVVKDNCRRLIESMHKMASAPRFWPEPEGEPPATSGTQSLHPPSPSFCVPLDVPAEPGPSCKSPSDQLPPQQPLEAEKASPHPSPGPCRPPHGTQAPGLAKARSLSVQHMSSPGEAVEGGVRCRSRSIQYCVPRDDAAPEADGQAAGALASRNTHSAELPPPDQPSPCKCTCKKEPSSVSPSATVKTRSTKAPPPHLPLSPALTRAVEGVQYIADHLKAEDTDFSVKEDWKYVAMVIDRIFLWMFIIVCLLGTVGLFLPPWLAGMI

Chain of Neuronal acetylcholine receptor; alpha3/beta4 (P30926 whole entry): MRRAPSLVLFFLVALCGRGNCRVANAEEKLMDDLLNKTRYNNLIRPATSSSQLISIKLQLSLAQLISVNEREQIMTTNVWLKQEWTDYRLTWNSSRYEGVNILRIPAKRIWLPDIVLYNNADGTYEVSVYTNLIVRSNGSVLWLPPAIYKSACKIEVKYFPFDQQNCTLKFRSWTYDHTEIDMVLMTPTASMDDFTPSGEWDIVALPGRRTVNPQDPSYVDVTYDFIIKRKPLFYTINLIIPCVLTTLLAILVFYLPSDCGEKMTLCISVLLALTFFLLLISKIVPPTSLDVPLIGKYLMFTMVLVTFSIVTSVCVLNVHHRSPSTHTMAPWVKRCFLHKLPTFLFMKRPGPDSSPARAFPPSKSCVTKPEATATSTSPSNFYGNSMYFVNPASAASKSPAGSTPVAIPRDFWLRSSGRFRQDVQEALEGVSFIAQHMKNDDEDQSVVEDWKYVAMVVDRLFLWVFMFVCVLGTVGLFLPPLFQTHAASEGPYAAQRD
Chain of Neuronal acetylcholine receptor; alpha3/beta4 (P32297 whole entry): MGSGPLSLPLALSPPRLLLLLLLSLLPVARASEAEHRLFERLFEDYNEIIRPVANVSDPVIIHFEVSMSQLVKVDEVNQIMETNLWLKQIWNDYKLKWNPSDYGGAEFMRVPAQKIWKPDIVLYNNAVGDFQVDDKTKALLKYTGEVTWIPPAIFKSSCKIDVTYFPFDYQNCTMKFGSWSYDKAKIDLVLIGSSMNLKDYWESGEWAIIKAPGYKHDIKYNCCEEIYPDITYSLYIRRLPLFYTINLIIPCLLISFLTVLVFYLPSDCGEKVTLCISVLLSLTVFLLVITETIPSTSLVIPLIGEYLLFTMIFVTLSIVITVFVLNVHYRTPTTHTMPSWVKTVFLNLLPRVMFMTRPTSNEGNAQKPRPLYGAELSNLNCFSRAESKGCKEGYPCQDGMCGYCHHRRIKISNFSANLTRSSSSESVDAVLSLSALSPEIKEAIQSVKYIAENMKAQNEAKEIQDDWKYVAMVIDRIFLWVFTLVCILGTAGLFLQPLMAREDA

Structure (SMILES)	IC50 ([1]; read-out: pIC50 (converted)) [µM]	Ratio pIC50 (Homo sapiens)	IC50 ([2]; read-out: pIC50 (converted)) [µM]	IC50 ([1]; read-out: IC50) [µM]	IC50 ([2]; read-out: IC50) [µM]
O=C(OCC1CCCN(CCCc2ccccc2)C1)c1ccccc1-n1cc(-c2ccccc2)nn1 (single isomer, unassigned)	4.27	0.19	2.82	–	–
O=C(OCC1CCCN(C(=O)CCc2ccccc2)C1)c1ccccc1-c1ccccc1 (stereo unspecified)	331	1.74	6.03	> 100	5.6
c1ccc(-c2ccccc2COCC2CCCNC2)cc1 (stereo unspecified)	–	–	4.17	–	–
CC1CC(=O)N(c2ccccc2C(=O)OCC2CCCN(CCOc3cccc(Cl)c3)C2)C1=O (stereo unspecified)	11.5	0.14	21.9	–	–
CO[C@@H]1C[C@H](OC)C[C@@H](OCCN2CCCC(COC(=O)c3ccccc3N3C(=O)CC(C)C3=O)C2)C1 (stereo partly specified)	41.7	0.68	12.6	–	–
COc1ccc(OCCCCCN2CCCC(COC(=O)c3ccccc3N3C(=O)CC(C)C3=O)C2)cc1 (stereo unspecified)	–	–	14.5	–	–
CC1CC(=O)N(c2ccccc2C(=O)OC[C@@H]2C[C@H](c3ccccc3)CN(CCCc3ccccc3)C2)C1=O (stereo partly specified)	–	–	5.37	–	–
CC1CC(=O)N(c2ccccc2C(=O)OCC2CCCN(CCCCCCc3ccccc3)C2)C1=O (stereo unspecified)	–	–	29.5	–	–
O=C(NCc1ccccc1-c1ccccc1)C1CCCN(CCCc2ccccc2)C1 (single isomer, unassigned)	14.5	-0.06	16.6	–	–
C[N+]1(C)CCCC(COC(=O)c2ccccc2-c2ccccc2)C1 (single isomer, unassigned)	6.46	0.43	2.4	–	–
O=C(OCC1CCCN(CCCc2ccccc2)C1)c1ccccc1-c1cccc2ccccc12 (stereo unspecified)	–	0.73	–	–	–
C[C@H]1CC(=O)N(c2ccccc2C(=O)OC[C@H]2CCCN(CCCc3ccccc3)C2)C1=O	11	0.02	10.5	–	–
CC1CC(=O)N(c2ccccc2C(=O)OCC2CCCN(CCCCCc3ccccc3)C2)C1=O (stereo unspecified)	4.17	-0.77	24.5	–	–
COc1ccc(OCCCCCN2CCCC(COC(=O)c3coc4ccccc4c3=O)C2)cc1 (stereo unspecified)	–	–	10	–	–
COc1cccc(OCCCCCN2CCCC(COC(=O)c3ccccc3N3C(=O)CC(C)C3=O)C2)c1OC (stereo unspecified)	–	–	8.71	–	–
CC1CC(=O)N(c2ccccc2C(=O)OCC2CCCN(CCCCCOc3ccccc3)C2)C1=O (stereo unspecified)	–	–	17	–	–
COc1ccccc1C(=O)OCC1CCCN(CCCc2ccccc2)C1 (single isomer, unassigned)	12	0.19	7.94	–	–
c1ccc(CCCN2CCCC(COCc3ccccc3-c3ccccc3)C2)cc1 (stereo unspecified)	15.5	0.09	12.6	–	–
O=C(OCC1CCCNC1)c1ccccc1-c1ccccc1 (single isomer, unassigned)	8.13	0.06	7.08	–	–
COc1ccc(OCCN2CCCC(COC(=O)c3ccccc3N3C(=O)CC(C)C3=O)C2)cc1 (stereo unspecified)	12	-0.75	66.1	–	–
CN1CCCC(COC(=O)c2ccccc2-c2ccccc2)C1 (single isomer, unassigned)	4.79	-0.16	6.92	–	–
CC(=O)Nc1ccccc1C(=O)OCC1CCCN(CCCc2ccccc2)C1 (stereo unspecified)	4.27	-0.11	5.5	–	–
O=C(NCC1CCCN(CCCc2ccccc2)C1)c1ccccc1-c1ccccc1 (single isomer, unassigned)	–	3.7	20	–	–
CC1CC(=O)N(c2ccccc2C(=O)OC[C@@H]2C[C@H](C3CCCCC3)CN(CCCc3ccccc3)C2)C1=O (stereo partly specified)	85.1	0.33	39.8	–	–
c1ccc(CCCN2CCCC(COCc3cn(Cc4ccccc4-c4ccccc4)nn3)C2)cc1 (stereo unspecified)	7.24	0.39	2.88	–	–

Structure (SMILES)	IC50 ([1]; read-out: pIC50 (converted)) [µM]	Ratio pIC50 (Homo sapiens)	IC50 ([2]; read-out: pIC50 (converted)) [µM]	IC50 ([1]; read-out: IC50) [µM]	IC50 ([2]; read-out: IC50) [µM]
O=C(OCC1=CCCN(CCCc2ccccc2)C1)c1ccccc1N1C(=O)CC(Cc2ccccc2)C1=O (stereo unspecified)	3.72	-0.14	5.13	–	–
O=C(OCC1CCCN(CCCc2ccccc2)C1)c1ccccc1N1C(=O)c2ccccc2C1=O (single isomer, unassigned)	5.89	0.07	5.01	–	–
O=C(CCC1CCCNC1)c1ccccc1-c1ccccc1 (stereo unspecified)	6.61	-0.14	9.12	–	–
COc1ccc(OCCCCCN2CCCC(COC(=O)c3cc(=O)c4ccccc4o3)C2)cc1 (stereo unspecified)	–	–	10.2	–	–
CC1CC(=O)N(c2ccccc2C(=O)OCC2CCCN(CCOc3cccc4ccccc34)C2)C1=O (stereo unspecified)	15.8	0.61	3.89	–	–
CC1CC(=O)N(c2ccccc2C(=O)OCC2CCCN(CCCCOc3ccccc3)C2)C1=O (stereo unspecified)	–	–	1.7	–	–
O=C(OCC1CCCN(CCCc2ccccc2)C1)c1ccccc1Cl (single isomer, unassigned)	22.9	0.39	9.33	–	–
O=C(OCC1CCCN(CCCc2ccccc2)C1)c1ccccc1N1C(=O)CC(Cc2ccc(Cl)cc2)C1=O (stereo unspecified)	14.5	0.14	10.7	–	–
O=C(OCC1CCCN(CCCc2ccccc2)C1)c1ccccc1N1C(=O)CC(CCc2ccccc2)C1=O (stereo unspecified)	33.1	0.81	5.13	–	–
O=C(OCC1CCN(CCCc2ccccc2)CC1)c1ccccc1-c1ccccc1	–	0.11	–	10.5	8.1
O=C(OCC1CCCN(CCCc2ccccc2)C1)c1ccc(-c2ccccc2)cc1 (stereo unspecified)	18.6	0.47	6.31	–	–
CC1CC(=O)N(c2ccccc2C(=O)OCC2CCCN(CCCCOc3ccc(Cl)c(Cl)c3)C2)C1=O (stereo unspecified)	74.1	0.78	12.3	–	–
C[C@@H]1CC(=O)N(c2ccccc2C(=O)OC[C@@H]2CCCN(CCCc3ccccc3)C2)C1=O	9.55	0.02	8.91	–	–
CC(C)N1CC(OC(=O)c2ccccc2-c2ccccc2)C2CC1C1OC(C)(C)OC21 (stereo unspecified)	–	–	9.55	–	–
CC1CC(=O)N(c2ccccc2C(=O)OCC2CCCN(CCCC3CCCCC3)C2)C1=O (stereo unspecified)	10.7	-0.14	14.5	–	–
O=C(OCC1CCCN(CCCc2ccccc2)C1)c1ccccc1C(F)(F)F (single isomer, unassigned)	–	-0.16	–	5.5	8
[N-]=[N+]=NCCCN1CCCC(COC(=O)c2ccccc2-c2ccccc2)C1 (single isomer, unassigned)	1.82	-0.38	4.27	–	–
O=C(CCc1ccccc1)N1CCCC(CN(Cc2ccccc2-c2ccccc2)Cc2ccccc2-c2ccccc2)C1 (stereo unspecified)	40.7	0.29	20.9	–	–
O=C(OC1CCCN(CCCc2ccccc2)C1)c1ccccc1-c1ccccc1 (single isomer, unassigned)	–	–	–	2.7	6.5
CC1CC(=O)N(c2ccccc2C(=O)CCC2CCCN(CCCCOc3ccc(C(F)(F)F)cc3)C2)C1=O (stereo unspecified)	–	–	7.08	–	–
CC(C)N1CCCC(COC(=O)c2ccccc2N2C(=O)CC(Cc3ccccc3)C2=O)C1 (stereo unspecified)	–	–	8.91	–	–
CC1CC(=O)N(c2ccccc2C(=O)OC2CN(C(C)C)C3CC2C2OC(C)(C)OC23)C1=O (stereo unspecified)	–	–	7.59	–	–
CC1CC(=O)N(c2ccccc2C(=O)OC2CN(CCCc3ccccc3)C3CC2C2OC(C)(C)OC23)C1=O (stereo unspecified)	30.9	–	–	–	–
COc1ccc(OCCCCCN2CCCC(COC(=O)c3ccccc3-c3ccccc3)C2)cc1 (stereo unspecified)	22.4	–	14.5	–	–

Source: ChEMBL document CHEMBL1949658, “3D-QSAR and 3D-QSSR models of negative allosteric modulators facilitate the design of a novel selective antagonist of human α4β2 neuronal nicotinic acetylcholine receptors” (Bioorg Med Chem Lett, 2012)
